pIC50: −log10 of the molar value. Converted amounts (≈) assume the structure as drawn.
Key:
[1] = Selectivity ratio of inhibition of RSK3 (unknown origin) to inhibition of PKC theta (unknown origin) at 1 mM ATP concentration
[2] = Selectivity ratio of inhibition of PI3K-C2beta (unknown origin) to inhibition of PKC theta (unknown origin) at 1 mM ATP concentration
[3] = Selectivity ratio of inhibition of PKCeta (unknown origin) to inhibition of PKC theta (unknown origin) at 1 mM ATP concentration
[4] = Half life in rat; format: ADME; details: in vivo
[5] = Selectivity ratio of inhibition of PKCbeta1 (unknown origin) to inhibition of PKC theta (unknown origin) at 1 mM ATP concentration
[6] = Selectivity ratio of inhibition of HGK (unknown origin) to inhibition of PKC theta (unknown origin) at 1 mM ATP concentration
[7] = Oral bioavailability in rat; format: ADME, organism-based; details: in vivo
[8] = biological target: T1, Protein kinase C theta type (Homo sapiens, UniProt Q04759); assay: Inhibition of PKC theta in TCR-stimulated human PBMC assessed as inhibition of IL-2 release; format: cell-based
T1 sequence (Q04759 whole entry): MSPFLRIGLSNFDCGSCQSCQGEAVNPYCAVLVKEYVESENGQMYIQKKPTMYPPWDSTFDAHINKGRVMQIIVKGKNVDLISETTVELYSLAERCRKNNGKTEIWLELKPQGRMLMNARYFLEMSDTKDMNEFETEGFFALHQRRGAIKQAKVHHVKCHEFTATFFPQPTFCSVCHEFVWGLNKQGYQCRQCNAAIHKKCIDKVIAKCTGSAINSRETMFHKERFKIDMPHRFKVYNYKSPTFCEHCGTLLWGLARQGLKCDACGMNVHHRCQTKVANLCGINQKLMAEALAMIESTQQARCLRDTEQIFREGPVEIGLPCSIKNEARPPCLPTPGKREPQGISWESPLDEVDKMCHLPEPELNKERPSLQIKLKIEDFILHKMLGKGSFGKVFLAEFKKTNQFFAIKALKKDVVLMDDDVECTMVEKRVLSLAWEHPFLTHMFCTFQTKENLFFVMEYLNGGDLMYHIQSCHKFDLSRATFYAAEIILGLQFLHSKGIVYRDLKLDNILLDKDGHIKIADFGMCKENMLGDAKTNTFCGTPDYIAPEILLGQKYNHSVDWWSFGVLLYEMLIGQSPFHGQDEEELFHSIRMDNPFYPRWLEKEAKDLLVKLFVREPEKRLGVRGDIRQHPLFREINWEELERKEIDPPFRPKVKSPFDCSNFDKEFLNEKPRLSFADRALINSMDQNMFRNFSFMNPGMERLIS

[9] = biological target: T2, Protein kinase C alpha type (Homo sapiens, UniProt P17252); assay: Inhibition of PKC alpha (unknown origin) in presence of ATP at Km
[10] = Selectivity ratio of inhibition of CLK1 (unknown origin) to inhibition of PKC theta (unknown origin) at 1 mM ATP concentration
[11] = Selectivity ratio of inhibition of AURB (unknown origin) to inhibition of PKC theta (unknown origin) at 1 mM ATP concentration
[12] = Apparent permeability of a compound in human Caco-2 cells; format: ADME, cell-based
[13] = Clearance in rat; format: ADME; details: in vivo
[14] = Selectivity ratio of inhibition of PKCdelta (unknown origin) to inhibition of PKC theta (unknown origin) at 1 mM ATP concentration
[15] = Solubility of the compound; format: physicochemical
[16] = Selectivity ratio of inhibition of GSK3beta (unknown origin) to inhibition of PKC theta (unknown origin) at 1 mM ATP concentration
[17] = Selectivity ratio of inhibition of TRKA (unknown origin) to inhibition of PKC theta (unknown origin) at 1 mM ATP concentration
[18] = Selectivity ratio of inhibition of FLT3 (unknown origin) to inhibition of PKC theta (unknown origin) at 1 mM ATP concentration
[19] = biological target: T2, Protein kinase C alpha type; assay: Inhibition of PKC alpha (unknown origin) in presence of 1 mM ATP
[20] = biological target: T1, Protein kinase C theta type; assay: Inhibition of PKC theta (unknown origin) in presence of ATP at Km
[21] = Efflux ratio of apparent permeability across basolateral to apical side over apical to basolateral side in human Caco-2 cells; format: ADME, cell-based
[22] = Selectivity ratio of inhibition of PKACalpha (unknown origin) to inhibition of PKC theta (unknown origin) at 1 mM ATP concentration
[23] = Selectivity ratio of inhibition of MSK1 (unknown origin) to inhibition of PKC theta (unknown origin) at 1 mM ATP concentration
[24] = biological target: T1, Protein kinase C theta type; assay: Inhibition of PKC theta (unknown origin) in presence of 1 mM ATP
[25] = Volume of distribution at steady state in rat; format: ADME; details: in vivo, read-out: Vdss
[26] = Metabolic stability in human hepatocytes assessed as intrinsic clearance measured per 10^6 cells; format: ADME, cell-based, Hepatocyte; details: read-out: CLH

| Selectivity ratio [1] | Selectivity ratio [2] | Selectivity ratio [3] | Selectivity ratio [5] | Selectivity ratio [6] | bioavailability [7] | pIC50 [8] | pIC50 [9] | Selectivity ratio [10] | Selectivity ratio [11] | Papp [12] | clearance [13] | Selectivity ratio [14] | solubility [15] | Selectivity ratio [16] | Selectivity ratio [17] | Selectivity ratio [18] | pIC50 [19] | pIC50 [20] | efflux ratio [21] | Compound | further results |
| --- | --- | --- | --- | --- | --- | --- | --- | --- | --- | --- | --- | --- | --- | --- | --- | --- | --- | --- | --- | --- | --- |
| 311 | 133 | 43 | 147 | 51 | 53% | 7.54 | 6.11 | 66 | 763 | 3.9 ×10⁻⁶ cm/s | 19.6 mL/min/kg | 38 | 300 µM (≈ 107 µg/mL) | 66 | 491 | 21 | 5.19 | 9.05 | 8 | CC1CCCOc2nc(ccc2C(N)=O)-n2c(=O)[nH]c3nccc(c32)O1 (centres undefined) | half-life [4]: 2.2 h; Selectivity ratio [22]: 501; Selectivity ratio [23]: 322; pIC50 [24]: 7.92 |
| 4910 | 3050 | 482 | 262 | > 6250 | 20% | 7.59 | 6.85 | > 6250 | 2850 | 4 ×10⁻⁶ cm/s | 36 mL/min/kg | 346 | 123 µM (≈ 46.4 µg/mL) | 4540 | 2200 | 1310 | 6.10 | > 9.30 | 8 | CC1CCC(C)n2ccc(=O)c3ccc(nc32)-n2c(=O)[nH]c3nccc(c32)O1 (centres undefined) | Vd [25]: 2.7 L/kg; Selectivity ratio [22]: > 6250; Selectivity ratio [23]: 945; hepatocyte CLint [26]: < 4 µL/min/1e6 cells; pIC50 [24]: 8.80 |
